Experimental data from patent US11078188B2, “Dihydroquinoxaline bromodomain recognition protein inhibitor, preparation method and use thereof” (SHANGHAI INSTITUTE OF MATERIA MEDICA, CHINESE ACADEMY OF …, priority 2017, dated 2021).

Columns and labels:
CYP enzyme = test: Mechanistic inhibition test (TDI test); type: in vitro ADME; conditions: human liver microsomes 0.2 mg/ml; mechanism inhibition if kobs greater than 200
Experimental: The system which was 200 μl of human liver microsomes (final concentration: 0.2 mg/ml) was used for mechanistic inhibition incubation. The system contained 10 μl compound, mixed positive inhibitor (Troleandomycin 10 μl, Paroxetine 10 μl, Tienilic acid 10 μM, Furafylline 10 μl) or 10 μl negative control PRO. After NADPH (final concentration: 1 mM) or PBS was added, the system was incubated for 0 min, 5 min, 10 min and 30 min, then NADPH (final concentration: 1 mM) and mixed probe substrate (Midazolam 5 μM, Testosterone 50 μl, Dextromethophan 5 μM, Diclofenac 10 μl, Phenacetin 5 0 μM, S-(+)-mephenytoin 50 μl) were added and incubated for 10 min. Then the reaction was stopped. The test for positive inhibitor CYP2C19 was carried out alone, the inhibitor S-(+)-fluoxetine was 100 μM. The enzyme activity was calculated by measuring the relative production amount of metabolite. kobs was calculated.
HLM Clint (μl/min/mg) refers to the clearance rate of compounds in human liver microsomes having a unit of μl/min/mg; mLM Clint (μl/min/mg) refers to the clearance rate of compounds in mouse liver microsomes having a unit of μl/min/mg; HLM t1/2 (min) refers to the half-life of the compound in human liver microsomes having a unit of minutes; mLM t1/2 (min) refers to the half-life of the compound in mouse liver microsomes having a unit of minutes. TDI means that the mechanism inhibition test of compounds on CYP enzyme evaluates whether the compound has time-dependent inhibition of the enzyme.

[1] = test system: MM.1S nude mice xenografts; test: Growth of MM.1S nude mice xenografts in vivo; set-up: species or system Balb/C nude mice; conditions: for TV (mm^3, mean) d0: d0 (at start of administration)
Experimental: Balb/C nude mice (6 weeks, female, Beijing Huafukang Biotechnology Co., Ltd.) were purchased, and the animals were conditioned for about one week before the test. MM.1S cells were cultured in vitro, and the cells in logarithmic growth phase were resuspended in serum-free RPMI1640 medium to adjust the cell concentration. The cell suspension was subcutaneously injected into forefoot armpit of the Balb/C nude mice with a syringe, and each animal was injected with 150 μL (8.0×10^6/mouse). When the average tumor volume grew to about ˜150 mm^3, the animals were divided into 4 groups containing solvent control group, 50 mg/kg OTX-015 group, and 20 and 50 mg/kg compound 6 groups by the randomized block method and each group contained six animals. […] During the administration period, the tumor diameter was measured twice a week, the body weight of the animals was weighed, the living state of the animals was observed, and abnormal conditions were recorded.
The formula for calculating tumor volume (TV): TV=½×a×b^2, where a and b represent length and width, respectively.
The relative tumor volume (RTV) was calculated based on the measured results, and the calculation formula was: RTV=Vt/V0. Wherein V0 was the measured tumor volume at the time of administration by cage (ie, d0), and Vt was the tumor volume at each measurement.
The relative tumor proliferation rate T/C (%) was calculated based on the measured results, and the calculation formula was as follows: T/C (%)=(TRTV/CRTV)×100%, TRTV: treatment group RTV; CRTV: negative control group RTV.

CYP2D6 = CYP2D6 (Homo sapiens (Human), UniProt P10635); test: Direct inhibition test (DI test), CYP 2D6; type: in vitro ADME; conditions: human liver microsomes 0.2 mg/ml, read-out: Direct inhibition rate (%) 2D6
Experimental: (§1) The system which was 100 μl of human liver microsomes (final concentration: 0.2 mg/ml) was used for direct inhibition incubation. The system contained NADPH (final concentration: 1 mM), 10 μl compound, positive inhibitor cocktail (ketoconazole, 10 μl, quinidine 10 μl, sulfaphenazole 100 μl, naphthoflavone 10 μl, tranylcypromine 1000 μl), negative control 10 μl DMSO and mixed probe substrate (midazolam 10 μl, testosterone 100 μl, dextromethorphan 10 μl, diclofenac 20 μl, phenacetin 100 μl, mephenytoin 100 μl). The reaction was stopped after the system was incubated for 20 min. The relative activity of the enzyme was calculated by measuring the relative amount of production of the metabolite.

1A2 = 1A2 (Homo sapiens (Human), UniProt P05177); test: Direct inhibition test (DI test), CYP 1A2; type: in vitro ADME; conditions: human liver microsomes 0.2 mg/ml, 20 min
Experimental: as §1

CYP3A4 = CYP3A4 (Homo sapiens (Human), UniProt P08684); test: Direct inhibition test (DI test), CYP 3A4; type: in vitro ADME; conditions: human liver microsomes 0.2 mg/ml, first of two values a/b (two 3A4 probes midazolam, testosterone; assignment not given), read-out: Direct inhibition rate (%) 3A4, first value
2C19 = 2C19 (Homo sapiens (Human), UniProt P33261); test: Direct inhibition test (DI test), CYP 2C19; type: in vitro ADME; conditions: human liver microsomes 0.2 mg/ml, 20 min
Experimental: as §1

2C9 = 2C9 (Homo sapiens (Human), UniProt P11712); test: Direct inhibition test (DI test), CYP 2C9; type: in vitro ADME; conditions: human liver microsomes 0.2 mg/ml, 20 min
Experimental: as §1

Chain of 2C9 (P11712 whole entry): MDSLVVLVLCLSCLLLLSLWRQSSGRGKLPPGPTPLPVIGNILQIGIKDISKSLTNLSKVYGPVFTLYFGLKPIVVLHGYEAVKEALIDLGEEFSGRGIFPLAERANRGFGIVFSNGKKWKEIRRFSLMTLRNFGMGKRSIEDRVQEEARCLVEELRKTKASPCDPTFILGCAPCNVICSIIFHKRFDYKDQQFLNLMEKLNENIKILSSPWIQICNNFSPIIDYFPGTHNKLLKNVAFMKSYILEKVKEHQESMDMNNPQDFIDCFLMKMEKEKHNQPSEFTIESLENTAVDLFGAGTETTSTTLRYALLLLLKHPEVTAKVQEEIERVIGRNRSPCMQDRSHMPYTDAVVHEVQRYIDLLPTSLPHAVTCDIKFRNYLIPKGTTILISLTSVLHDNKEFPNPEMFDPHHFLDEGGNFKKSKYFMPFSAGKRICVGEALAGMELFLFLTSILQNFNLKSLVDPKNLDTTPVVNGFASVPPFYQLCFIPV
Chain of CYP3A4 (P08684 whole entry): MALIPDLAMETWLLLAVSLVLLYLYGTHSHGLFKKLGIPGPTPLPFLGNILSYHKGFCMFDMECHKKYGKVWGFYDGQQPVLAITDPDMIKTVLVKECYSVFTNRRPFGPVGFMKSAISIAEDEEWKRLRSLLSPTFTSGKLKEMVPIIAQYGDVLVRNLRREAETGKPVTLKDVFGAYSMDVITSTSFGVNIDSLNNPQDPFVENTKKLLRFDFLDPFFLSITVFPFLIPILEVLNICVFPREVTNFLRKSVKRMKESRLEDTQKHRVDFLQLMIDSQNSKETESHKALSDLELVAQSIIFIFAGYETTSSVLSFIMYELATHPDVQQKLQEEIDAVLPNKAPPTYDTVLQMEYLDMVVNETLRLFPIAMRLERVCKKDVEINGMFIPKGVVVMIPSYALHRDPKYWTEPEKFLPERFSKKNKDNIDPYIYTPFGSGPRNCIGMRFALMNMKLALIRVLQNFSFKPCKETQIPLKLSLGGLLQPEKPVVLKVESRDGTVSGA
Chain of 2C19 (P33261 whole entry): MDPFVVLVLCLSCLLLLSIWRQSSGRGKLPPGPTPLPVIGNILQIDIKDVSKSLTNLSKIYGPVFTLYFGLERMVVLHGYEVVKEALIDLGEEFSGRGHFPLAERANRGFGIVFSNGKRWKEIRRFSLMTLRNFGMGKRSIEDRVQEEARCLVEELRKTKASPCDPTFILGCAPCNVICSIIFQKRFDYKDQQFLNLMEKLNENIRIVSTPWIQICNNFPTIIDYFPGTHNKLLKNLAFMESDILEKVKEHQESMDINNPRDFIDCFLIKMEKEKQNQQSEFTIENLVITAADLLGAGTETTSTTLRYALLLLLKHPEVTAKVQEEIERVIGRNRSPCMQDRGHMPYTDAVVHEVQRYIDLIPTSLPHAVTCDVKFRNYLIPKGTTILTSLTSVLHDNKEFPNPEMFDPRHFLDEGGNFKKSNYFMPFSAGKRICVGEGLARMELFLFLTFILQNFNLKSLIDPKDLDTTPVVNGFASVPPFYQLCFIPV
Chain of 1A2 (P05177 whole entry): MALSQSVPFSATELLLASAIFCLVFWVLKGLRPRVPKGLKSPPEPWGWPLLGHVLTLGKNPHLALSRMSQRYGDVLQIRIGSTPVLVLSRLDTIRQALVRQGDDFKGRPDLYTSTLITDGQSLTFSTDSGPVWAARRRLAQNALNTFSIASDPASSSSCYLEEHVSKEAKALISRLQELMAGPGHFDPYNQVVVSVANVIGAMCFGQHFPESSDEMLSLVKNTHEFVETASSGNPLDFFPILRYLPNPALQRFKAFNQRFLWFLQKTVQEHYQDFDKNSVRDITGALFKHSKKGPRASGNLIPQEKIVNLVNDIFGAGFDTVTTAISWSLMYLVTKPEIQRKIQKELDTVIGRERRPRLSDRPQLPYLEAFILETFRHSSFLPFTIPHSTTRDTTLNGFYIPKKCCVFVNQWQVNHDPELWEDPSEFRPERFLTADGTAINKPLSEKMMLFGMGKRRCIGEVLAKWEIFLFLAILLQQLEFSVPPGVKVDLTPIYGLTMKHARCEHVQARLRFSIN
Chain of CYP2D6 (P10635 whole entry): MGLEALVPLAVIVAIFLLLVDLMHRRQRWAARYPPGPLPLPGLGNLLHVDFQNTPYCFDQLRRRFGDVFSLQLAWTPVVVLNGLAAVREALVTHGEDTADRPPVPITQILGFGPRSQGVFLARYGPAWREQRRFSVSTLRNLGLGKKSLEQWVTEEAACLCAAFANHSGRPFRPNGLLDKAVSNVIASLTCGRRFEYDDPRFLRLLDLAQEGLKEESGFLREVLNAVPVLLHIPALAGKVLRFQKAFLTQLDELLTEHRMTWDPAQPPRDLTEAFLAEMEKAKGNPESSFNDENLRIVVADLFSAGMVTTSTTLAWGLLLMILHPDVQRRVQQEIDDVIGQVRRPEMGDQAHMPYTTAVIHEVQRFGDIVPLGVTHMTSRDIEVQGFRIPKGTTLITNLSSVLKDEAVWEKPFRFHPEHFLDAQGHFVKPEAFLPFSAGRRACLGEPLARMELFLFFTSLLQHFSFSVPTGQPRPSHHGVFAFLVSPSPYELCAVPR

Structure (SMILES) | TDI (CYP enzyme) | RTV (mean SD) ([1]; 20 mg/kg qd/14 po) | T/C (%) ([1]; 20 mg/kg qd/14 po) | TV (mm^3, mean) d0 ([1]; 20 mg/kg qd/14 po) | TV (mm^3, mean) d14 ([1]; 20 mg/kg qd/14 po) | RTV (mean SD) ([1]; 50 mg/kg qd/14 po) | T/C (%) ([1]; 50 mg/kg qd/14 po) | TV (mm^3, mean) d0 ([1]; 50 mg/kg qd/14 po) | TV (mm^3, mean) d14 ([1]; 50 mg/kg qd/14 po) | inhibitory effect on the growth of MM.1S nude mice xenografts (in words) ([1]; oral administration of 50 mg/kg per day) | inhibition at 20 min (CYP2D6) | Direct inhibition rate (%) 1A2 (1A2) | inhibition at 20 min (CYP3A4) | Direct inhibition rate (%) 2C19 (2C19) | Direct inhibition rate (%) 2C9 (2C9)
Cc1ccc(-n2nc(C(=O)N3CCN(C)CC3)nc2-c2ccc3c(c2)N(C2CCCC2)[C@H](C)C(=O)N3C)cc1 [Example 6] | no | 584.14 | 48.32% | 184.28 mm^3 | 1024.45 mm^3 | 417.16 | 34.51% | 185.34 mm^3 | 660.39 mm^3 | significant inhibitory effect | – | – | – | – | –
Cc1ccc(-n2nc(C(=O)N3C[C@@H](C)N[C@@H](C)C3)nc2-c2ccc3c(c2)N(C2CCCC2)[C@H](C)C(=O)N3C)cc1 [Example 12] | no | – | – | – | – | – | – | – | – | – | 4% | no | 23% | 12% | 28%
